Assay type in all cases: in vivo
Assay [1] relates to gastric motility. Kind of assay: Gastric Motility Testing in the Rat (reversal of the inhibition effect of 6,7-ADTN). Conditions: conscious chronic gastric fistula rat; for reversal of the reduction of basal gastric motor activity by 6,7-ADTN: 10 minutes after 6,7-ADTN 1 mg/kg s.c. The procedure:
The compounds were tested for ability to reverse the inhibition effect of 6,7-ADTN on gastric motility recorded by an open tipped catheter in the conscious chronic gastric fistula rat. […] For subcutaneous testing the compounds were dissolved in water by the addition of tartaric acid (1/2 mole per mole of compound).

For assay [2], the system named is dopamine receptor. Kind of assay: Inhibition of Apomorphine Induced Climbing in the Mouse. Conditions: for Activity % Inhibition: apomorphine induced climbing, apomorphine 1 mg/kg s.c., orally 30 min prior. As to the method: The compound prepared in Example 3 was tested for inhibition of apomorphine induced climbing behaviour in the mouse. This is indicative of dopamine receptor blockade in the central nervous system.
The test is based on that described by Protais, P., Constantin, J. and Schwartz, J. C. (1976), Psychopharmacology, 50, 1-6.
Apomorphine 1 mg/kg s.c. induces mice to climb the wall of a wire cage (inverted food hopper--11×7.5×18 cm high). Mice acclimatised in their home cages in groups of 5 are placed under the hoppers immediately after the injection of apomorphine 1 mg/kg s.c. At 10,20 and 30 minutes after injection climbing behaviour is scored. The mice are observed for 30 seconds and scored according to the position they spend the majority of time in, score 0--four paws on floor of cage; score 1--fore paws only on walls; score 2--all paws on wall of cage. The scores at all 3 times and for each mouse are summed and mice drug treated orally 30 min. prior to apomorphine compared to mice receiving apomorphine only. A saline only treated group is also included and any score, generally 5% of maximum taken into account.

In assay [3] the test system is vomiting response. Kind of assay: Anti-emetic Activity in the Dog (apomorphine HCl vomiting response). Conditions: Canis lupus familiaris, 0.5 h; s.c., 30 minutes prior to apomorphine HCl 0.1 mg/kg subcutaneously; read-out: dose that totally inhibited the vomiting response. The procedure:
Compounds were administered subcutaneously 30 minutes, or per os 2 hr, prior to administration of a standard dose of apomorphine HCl (0.1 mg/kg subcutaneously) and the vomiting response compared to that obtained when the same animals were dosed with apomorphine HCl and vehicle only.

For the compound `NC1CCc2cc(O)c(O)cc2C1` (stereo not drawn) [6,7-ADTN, reference compound], in assay [1] (6,7-ADTN 1 mg/kg s.c.), the “basal gastric motor activity” value is listed as “reduced basal gastric motor activity”.

For `COc1ccc(NC(=O)[C@@H]2C[C@H]3CC[C@@H](C2)N3Cc2ccccc2)c(OC)c1` [Compound 20, 3-methoxy-4-[8'-benzyl-8'-azabicyclo[3.2.1]octane-3β'-carboxamido]anisole], the “Activity % Inhibition” value in assay [2] (compound dose 10 mg/kg) was 100%.

Turning to `COc1ccc(OC)c(NC(=O)[C@@H]2C[C@H]3CC[C@@H](C2)N3Cc2ccccc2)c1` [Compound 21, 4-methoxy-2-(8'-benzyl-8'-azabicyclo[3.2.1]octane-3β-carboxamido)anisole], the “Activity % Inhibition” value in assay [2] (compound dose 2 mg/kg) was 60%.

As to `COc1ccc(S(C)(=O)=O)cc1NC(=O)[C@@H]1C[C@H]2CC[C@@H](C1)N2Cc1ccccc1` [Compound 24, 4-methylsulphonyl-2-(8'-benzyl-8'-azabicyclo[3,2,1]octane-3'β-carboxamido)anisole], the “reversal of the reduction of basal gastric motor activity by 6,7-ADTN” value in assay [1] (compound 1 mg/kg s.c.) is given as “reversed”. The ED100 in assay [3] turned out to be 0.1 mg/kg. For the compound `COc1ccc(S(N)(=O)=O)cc1NC(=O)[C@@H]1C[C@H]2CC[C@@H](C1)N2Cc1ccccc1` [Compound 25, 4-aminosulphonyl-2-(8'benzyl-8'-azabicyclo[3.2.1]octane-3'β-carboxamido)anisole], the “reversal of the reduction of basal gastric motor activity by 6,7-ADTN” value in assay [1] (compound 5 mg/kg s.c.) was “reversed”. `COc1cc(N)c(Cl)cc1NC(=O)[C@@H]1C[C@H]2CC[C@@H](C1)N2Cc1ccccc1` [Compound 44, 5-Amino-4-chloro-2-[8'-benzyl-8'-azabicyclo-[3.2.1]octane-3'β-carboxamido]-anisole]: the “Activity % Inhibition” value in assay [2] (compound dose 1 mg/kg) came out at 100%. For the same compound, the 50% effective dose (ED50) in assay [2] (inhibition of apomorphine induced climbing, orally 30 min prior to apomorphine 1 mg/kg s.c.) amounted to 0.05 mg/kg. `COc1cc(N)c(Cl)cc1NC(=O)[C@@H]1C[C@H]2CC[C@@H](C1)N2Cc1ccc(Cl)c(Cl)c1` [Compound 45, 5-amino-4-chloro-2-(8'-[3",4"-dichlorobenzyl]-8'-azabicyclo[3.2.1]octane-3β'-carboxamido)anisole]: in assay [2] (compound dose 10 mg/kg), the “Activity % Inhibition” value came to 100%. As to `COc1cc(N)c(Cl)cc1NC(=O)[C@@H]1C[C@H]2CC[C@@H](C1)N2Cc1ccc(Cl)cc1` [Compound 46, 5-amino-4-chloro-2-(8'-(4"-chlorobenzyl)-8'-azabicyclo [3.2.1]octane-3'β-carboxamido)anisole], in assay [2] (compound dose 10 mg/kg), the “Activity % Inhibition” value came out at 100%. Still for that read-out and setting: to `COc1cc(N)c(Cl)cc1NC(=O)[C@@H]1C[C@H]2CC[C@@H](C1)N2Cc1ccc(C)cc1` [Compound 47, 5-amino-4-chloro-2-(8'-[4"-methylbenzyl]-8'-azabicyclo [3.2.1]octane-3'β-carboxamido)anisole] belongs 100%.

In the case of `COc1ccc(CN2[C@@H]3CC[C@H]2C[C@H](C(=O)Nc2cc(Cl)c(N)cc2OC)C3)cc1` [Compound 48, 5-amino-4-chloro-2-(8'-[4"-methoxybenzyl]-8'-azabicyclo [3.2.1]octane-3'β-carboxamido)anisole], the “Activity % Inhibition” value in assay [2] (compound dose 10 mg/kg) is 100%.

`COc1cc(N)c(Cl)cc1NC(=O)[C@@H]1C[C@H]2CC[C@@H](C1)N2CCC(C)C` [Compound 53, 5-amino-4-chloro-2-(8'-3"-methylbutyl-8'-azabicyclo [3.2.1]octane-3'β-carboxamido)anisole]: the “Activity % Inhibition” value in assay [2] (compound dose 10 mg/kg) was found to be 56%.

With `COc1cc(N)c(Cl)cc1NC(=O)[C@@H]1C[C@H]2CC[C@@H](C1)N2CC1CCCCC1` [Compound 55, 5-amino-4-chloro-2-(8'-cyclohexylmethyl-8'-azabicyclo [3.2.1]octane-3'β-carboxamido)anisole], the “Activity % Inhibition” value in assay [2] (compound dose 50 mg/kg) is reported as 100%. Regarding `COc1cc(NC(C)=O)c(Cl)cc1NC(=O)[C@@H]1C[C@H]2CC[C@@H](C1)N2Cc1ccccc1` [Compound 62, 5-Acetamido-4-chloro-2-[8-benzyl-8-azabicyclo (3,2,1)acetone-3β-carboxamido]anisole], the “Activity % Inhibition” value in assay [2] (compound dose 2 mg/kg) was 95%.

What is called ED50 is the midpoint of the dose-response relation. A high value points to weaker potency.

These data come from patent US4350691A, “Certain azabicyclocarboxamides and compositions containing same” (Beecham Group Limited, priority 1979, dated 1982).
